GI50 and TGI data for eight compounds are collected here from PubChem BioAssay (NCI).

Test systems include SN12C renal; KM12 colon; IGROV1 ovarian; HL-60(TB) leukemia; COLO 205 colon; HCC-2998 colon; SF-268 CNS; U251 CNS; HCT-15 colon; SK-MEL-28 melanoma.
Common to all, as to assay: NCI tumour cell line growth inhibition, 48 h

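Interpolation was linear, between the two tested concentrations surrounding the appropriate level; five concentrations were tested over 48 hours in 96-well plates. GI50: concentration for 50% inhibition of growth. The concentration for full growth arrest is given as TGI.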

As to `CCCCCCCC[N+](C)(CCCCCCCC)CCCCCCCC`, the GI50 is 0.337 µM with SN12C renal; 0.213 µM with KM12 colon; 0.347 µM with IGROV1 ovarian; 0.14 µM in the test with HL-60(TB) leukemia; 0.169 µM with COLO 205 colon; 0.305 µM in the test with HCC-2998 colon. Further, the GI50 in the test on SF-268 CNS is 0.441 µM; in the test on U251 CNS, 0.324 µM; with HCT-15 colon, 0.715 µM; with SK-MEL-28 melanoma it was 0.528 µM. Moreover, the TGI in the test on SN12C renal amounted to 1.24 µM; with KM12 colon, 0.575 µM; with IGROV1 ovarian, 1.91 µM; with HL-60(TB) leukemia, 0.366 µM; in the test on COLO 205 colon, 0.361 µM; in the test on HCC-2998 colon it was 1.17 µM. Besides, the TGI in the test with SF-268 CNS was determined as 1.53 µM; with U251 CNS, 1.31 µM; in the test with HCT-15 colon it was 2.1 µM; in the test with SK-MEL-28 melanoma, 1.79 µM.

Take `C[C@@H]1C=C2C(=O)O[C@@H]3CC[C@H](C1)[C@]23O`: the GI50 with SN12C renal is 5.65 µM; with KM12 colon it was 21.8 µM; in the test with IGROV1 ovarian it was 2.87 µM; in the test on COLO 205 colon, 4.64 µM; in the test with HCC-2998 colon it was 16.9 µM; in the test with SF-268 CNS it was 5.24 µM. The GI50 was 13.9 µM with U251 CNS, 3 µM with HCT-15 colon and 6.17 µM in the test with SK-MEL-28 melanoma. Moreover, the TGI is 31.2 µM in the test with SN12C renal; 61.6 µM with KM12 colon; 10.4 µM with IGROV1 ovarian; 5.71 µM in the test with HL-60(TB) leukemia; 15.7 µM in the test on COLO 205 colon; 32.9 µM in the test with HCC-2998 colon. In addition, the TGI in the test with SF-268 CNS is 30.4 µM; with U251 CNS, 27.5 µM; with HCT-15 colon, 18.1 µM; in the test with SK-MEL-28 melanoma it was 25.8 µM.

`Cc1[nH]c(=O)[nH]c(=O)c1CO`: the GI50 with SN12C renal, with KM12 colon, in the test on IGROV1 ovarian, with HL-60(TB) leukemia, in the test on COLO 205 colon and in the test with HCC-2998 colon was greater than 100 µM each time. Also, the GI50 with SF-268 CNS, with U251 CNS, with HCT-15 colon and in the test on SK-MEL-28 melanoma was greater than 100 µM throughout. Moreover, the TGI with SN12C renal, with KM12 colon, with IGROV1 ovarian, in the test with HL-60(TB) leukemia, in the test with COLO 205 colon and in the test with HCC-2998 colon was greater than 100 µM throughout. Also, the TGI in the test on SF-268 CNS, with U251 CNS, with HCT-15 colon and in the test with SK-MEL-28 melanoma was greater than 100 µM throughout.

As to `Cc1ccc(C)c(-c2csc(Nc3ccc(C)c(C)c3)n2)c1`, the GI50 in the test on SN12C renal is greater than 100 µM; in the test on KM12 colon, greater than 100 µM; with IGROV1 ovarian, 62.8 µM; in the test on HL-60(TB) leukemia it was greater than 100 µM; in the test with COLO 205 colon, greater than 100 µM; in the test on HCC-2998 colon, greater than 100 µM. In addition, the GI50 was 29.8 µM with SF-268 CNS, 52.9 µM in the test on U251 CNS, 4.08 µM in the test on HCT-15 colon and greater than 100 µM in the test with SK-MEL-28 melanoma. The TGI in the test with SN12C renal, in the test with KM12 colon, in the test with IGROV1 ovarian, with HL-60(TB) leukemia, in the test on COLO 205 colon and with HCC-2998 colon was greater than 100 µM in each case. Further, the TGI with SF-268 CNS, in the test with U251 CNS, with HCT-15 colon and in the test on SK-MEL-28 melanoma was greater than 100 µM throughout.

On to `COC(=O)C1=C(C(=O)OC)C23C=C(C)C1C2=C(C)C1(CC1)[C@@](C)(O)C3=O` (some centres not stated), for which the GI50 is 0.435 µM in the test on SN12C renal; 0.868 µM in the test on KM12 colon; 0.275 µM with IGROV1 ovarian; 1.55 µM in the test on HL-60(TB) leukemia; 0.35 µM with COLO 205 colon; 0.245 µM in the test on HCC-2998 colon. Besides, the GI50 is 0.273 µM with SF-268 CNS, 0.311 µM in the test on U251 CNS, 0.403 µM in the test on HCT-15 colon and 0.714 µM in the test with SK-MEL-28 melanoma. In addition, the TGI with SN12C renal was determined as 13.3 µM; in the test on KM12 colon, 11 µM; with HL-60(TB) leukemia, 15.9 µM; with COLO 205 colon, 1.62 µM; with HCC-2998 colon it was 0.693 µM; in the test with SF-268 CNS, 3.07 µM. In addition, the TGI is greater than 42.8 µM with U251 CNS, 12.8 µM with HCT-15 colon and 3.97 µM in the test on SK-MEL-28 melanoma.

As for `Nc1ccn(C2CC(CO)C(O)C2O)c(=O)n1` (configuration not stated), the TGI in the test on SN12C renal, in the test with KM12 colon, with IGROV1 ovarian, with HL-60(TB) leukemia, in the test on COLO 205 colon and in the test with HCC-2998 colon was greater than 57.7 µM each time. In addition, the TGI in the test on SF-268 CNS, with U251 CNS, with HCT-15 colon and with SK-MEL-28 melanoma was greater than 57.7 µM throughout.

With `C[C@H]1[C@H](C)CC[C@]2(C(=O)O)CC[C@]3(C)C(=CC[C@@H]4[C@@]5(C)C/C(=C/c6ccco6)C(=O)C(C)(C)[C@@H]5CC[C@]43C)[C@H]12`, the GI50 was 3.7 µM in the test on SN12C renal; 3.82 µM with KM12 colon; 5.19 µM in the test on IGROV1 ovarian; 2.44 µM in the test on HL-60(TB) leukemia; 3.6 µM in the test with COLO 205 colon; 3.84 µM in the test on HCC-2998 colon. In addition, the GI50 in the test on SF-268 CNS was 5.59 µM; in the test with U251 CNS it was 4.27 µM; in the test on HCT-15 colon, 2.95 µM; in the test with SK-MEL-28 melanoma it was 4.81 µM. For the same compound, the TGI with SN12C renal is 18.9 µM; in the test on KM12 colon, 15.6 µM; in the test with IGROV1 ovarian, 21.7 µM; with HL-60(TB) leukemia, 7.04 µM; in the test on COLO 205 colon, 15.1 µM; with HCC-2998 colon, 15.3 µM. The TGI was 22.1 µM with SF-268 CNS, 17 µM in the test on U251 CNS, 12.1 µM in the test on HCT-15 colon and 17.5 µM in the test with SK-MEL-28 melanoma.

Take `COC(=O)C(Cl)=C1CC1`: the TGI with SN12C renal was greater than 100 µM; in the test with KM12 colon it was greater than 100 µM; in the test with IGROV1 ovarian, greater than 100 µM; in the test with HL-60(TB) leukemia it was 51.3 µM; in the test on COLO 205 colon, 38.3 µM; with HCC-2998 colon it was greater than 100 µM. Besides, the TGI in the test with SF-268 CNS is greater than 100 µM; in the test on HCT-15 colon, 57.6 µM; in the test with SK-MEL-28 melanoma, 54.3 µM.
